Tests used:
[1] = system: HEK293 cells; assay: HEK293 cell viability, CellTiter 96 Aqueous One Solution Cell Proliferation assay; type: cell-based; details: Homo sapiens, HEK293, 48 h, read-out: EC50
Description: The effect of various doses of compounds 5a, 5a,b, and 9a on the viability of HEK293 cells was examined using the CellTiter 96 Aqueous One Solution Cell Proliferation assay (Promega). The HEK293 cells were cultured in DMEM media (Cellgro) or phenol red-free DMEM (Gibco) supplemented with 10% Fetal Bovine Serum (Tissue Culture Biologicals) and 1× Penicillin/Streptomycin/Glutamine (Gibco). The cells were grown at 37° C. with 5% CO2. HEK293 cells were seeded into each well of a 96-well plate (5000 cells/well) and incubated overnight to allow the cells to attach. The culture media was removed and replaced with 100 μl of phenol red-free media containing the compounds 5a, 5a,b, and 9a at various concentrations. The cells were allowed to grow in the presence of the compounds for 48 hrs. At the end of the treatment, 20 μl of CellTiter 96 Aqueous One Solution reagent was added directly into each well, and the cells were incubated at 37° C. for 2 hrs. This reagent converts to a form that absorbs light at 490 nm by living cells. Thus, absorbance at 490 nm is proportional to the number of viable cells. The 490 nm absorbance was measured on a BioRad plate reader. Control wells containing no cells were included in this assay to correct for background absorbance.

[2] = target: T1, topoisomerase I (Homo sapiens, UniProt P11387); assay: Topoisomerase I assay (supercoiled pBluescript DNA, agarose gel); type: biochemical; details: in vitro, FIG. 2
T1 construct: purchased Sigma-Aldrich
T1 sequence (P11387 1-765): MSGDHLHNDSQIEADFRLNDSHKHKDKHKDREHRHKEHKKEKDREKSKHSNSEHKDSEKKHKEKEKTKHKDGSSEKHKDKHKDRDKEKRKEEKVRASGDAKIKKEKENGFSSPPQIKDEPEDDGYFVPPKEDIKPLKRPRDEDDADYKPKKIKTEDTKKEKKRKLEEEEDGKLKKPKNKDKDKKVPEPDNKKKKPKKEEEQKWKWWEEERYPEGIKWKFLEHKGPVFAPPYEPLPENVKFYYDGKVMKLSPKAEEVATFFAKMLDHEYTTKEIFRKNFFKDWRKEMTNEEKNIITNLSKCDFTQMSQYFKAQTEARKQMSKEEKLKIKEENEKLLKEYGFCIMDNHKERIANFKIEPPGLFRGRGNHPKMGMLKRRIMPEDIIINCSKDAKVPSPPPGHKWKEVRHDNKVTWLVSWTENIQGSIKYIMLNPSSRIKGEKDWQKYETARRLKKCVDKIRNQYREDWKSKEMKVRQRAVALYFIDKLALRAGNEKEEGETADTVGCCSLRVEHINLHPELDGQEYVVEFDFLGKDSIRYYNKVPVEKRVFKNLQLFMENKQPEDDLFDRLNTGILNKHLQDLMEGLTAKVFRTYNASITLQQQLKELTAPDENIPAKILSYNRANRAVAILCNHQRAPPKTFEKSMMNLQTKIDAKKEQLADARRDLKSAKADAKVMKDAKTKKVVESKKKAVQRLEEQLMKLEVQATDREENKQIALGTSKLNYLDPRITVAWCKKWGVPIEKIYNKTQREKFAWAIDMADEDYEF
Description: (§1) The ability of compounds that cause S-phase cell cycle arrest to inhibit topoisomerase I and topoisomerase II was examined. Analysis of topoisomerase activity was performed in 20 μl reactions with either topoisomerase I reaction buffer (10 mM TRIS-HCl, pH 7.5; 100 mM NaCl; 1 mM 2-mercaptoethanol) or topoisomerase II reaction buffer (50 mM Tris-HCl, pH 8; 120 mM KCl; 10 mM MgCl2; 0.5 mM dithiothreitol; 0.5 mM ATP; 30 μg BSA/ml) containing 125 ng supercoiled pBluescript DNA and either 2 U topoisomerase I (Sigma-Aldrich) or topoisomerase II (Topogen Inc.). After reaction at 37° C. for 20 minutes, the reactions were terminated through the addition of sodium dodecyl sulfate to 1% w/v and heating to 65° C. for 10 minutes. Proteinase K was then added to 10 μg/ml and digestion was allowed to proceed at 37° C. for 20 minutes before electrophoresis of the DNA in 0.8% agarose gels containing 0.5 μg/ml ethidium bromide for 18 hours at 75V in 0.5×TBE buffer. DNA was then visualized using a UV-transilluminator and the image was captured using a BioRad CCD camera and gel documentation system.

[3] = target: T2, topoisomerase II (Homo sapiens, UniProt P11388); assay: Topoisomerase II assay (supercoiled pBluescript DNA, agarose gel); type: biochemical; details: in vitro, FIG. 2
T2 construct: purchased Topogen Inc
Description: as §1, with “Analysis” for “The ability of compounds that cause S-phase cell cycle arrest to inhibit topoisomerase I and topoisomerase II was examined. Analysis”

[4] = system: HEK293 cells; assay: Cell cycle analysis by FACS of HEK293 cells; type: cell-based; details: HEK293, 50 μM, treated 16 to 24 hrs
Description: Fluorescence-activated cell sorting (FACS) analysis was used to examine the cell cycle state when the cells were incubated with compounds of formula (I) as well as several control compounds, including DMSO, noscapine (a known G2/M inhibitor), and colchicine (a known G2/M inhibitor).
In particular, HEK293 cells were cultured in DMEM media (Celigro) supplemented with 10% Fetal Bovine Serum (Tissue Culture Biologicals) and 1× Penicillin/Streptomycin/Glutamine (Gibco). The cells were grown at 37° C. with 5% CO2, plated in six-well plates at 2.5×10^6 cells/well, and treated for 16 to 24 hrs with the compounds at the concentrations shown in Table 1, below. The cells were then triturated off the bottom of the wells, washed 1× with PBS, then fixed with 70% ethanol, and stored at 4° C. before staining and FACS analysis.
The DNA content of cells was determined using a FacsVantage SE flow cytometry system (Becton Dickinson, San Jose, Calif.) and a Cellular DNA Flow Cytometric Analysis Kit (Roche Applied Science, Indianapolis, Ind.). Cell cycle analysis was performed using Cylchred 1.0.2 software.

T2 sequence (P11388 whole entry): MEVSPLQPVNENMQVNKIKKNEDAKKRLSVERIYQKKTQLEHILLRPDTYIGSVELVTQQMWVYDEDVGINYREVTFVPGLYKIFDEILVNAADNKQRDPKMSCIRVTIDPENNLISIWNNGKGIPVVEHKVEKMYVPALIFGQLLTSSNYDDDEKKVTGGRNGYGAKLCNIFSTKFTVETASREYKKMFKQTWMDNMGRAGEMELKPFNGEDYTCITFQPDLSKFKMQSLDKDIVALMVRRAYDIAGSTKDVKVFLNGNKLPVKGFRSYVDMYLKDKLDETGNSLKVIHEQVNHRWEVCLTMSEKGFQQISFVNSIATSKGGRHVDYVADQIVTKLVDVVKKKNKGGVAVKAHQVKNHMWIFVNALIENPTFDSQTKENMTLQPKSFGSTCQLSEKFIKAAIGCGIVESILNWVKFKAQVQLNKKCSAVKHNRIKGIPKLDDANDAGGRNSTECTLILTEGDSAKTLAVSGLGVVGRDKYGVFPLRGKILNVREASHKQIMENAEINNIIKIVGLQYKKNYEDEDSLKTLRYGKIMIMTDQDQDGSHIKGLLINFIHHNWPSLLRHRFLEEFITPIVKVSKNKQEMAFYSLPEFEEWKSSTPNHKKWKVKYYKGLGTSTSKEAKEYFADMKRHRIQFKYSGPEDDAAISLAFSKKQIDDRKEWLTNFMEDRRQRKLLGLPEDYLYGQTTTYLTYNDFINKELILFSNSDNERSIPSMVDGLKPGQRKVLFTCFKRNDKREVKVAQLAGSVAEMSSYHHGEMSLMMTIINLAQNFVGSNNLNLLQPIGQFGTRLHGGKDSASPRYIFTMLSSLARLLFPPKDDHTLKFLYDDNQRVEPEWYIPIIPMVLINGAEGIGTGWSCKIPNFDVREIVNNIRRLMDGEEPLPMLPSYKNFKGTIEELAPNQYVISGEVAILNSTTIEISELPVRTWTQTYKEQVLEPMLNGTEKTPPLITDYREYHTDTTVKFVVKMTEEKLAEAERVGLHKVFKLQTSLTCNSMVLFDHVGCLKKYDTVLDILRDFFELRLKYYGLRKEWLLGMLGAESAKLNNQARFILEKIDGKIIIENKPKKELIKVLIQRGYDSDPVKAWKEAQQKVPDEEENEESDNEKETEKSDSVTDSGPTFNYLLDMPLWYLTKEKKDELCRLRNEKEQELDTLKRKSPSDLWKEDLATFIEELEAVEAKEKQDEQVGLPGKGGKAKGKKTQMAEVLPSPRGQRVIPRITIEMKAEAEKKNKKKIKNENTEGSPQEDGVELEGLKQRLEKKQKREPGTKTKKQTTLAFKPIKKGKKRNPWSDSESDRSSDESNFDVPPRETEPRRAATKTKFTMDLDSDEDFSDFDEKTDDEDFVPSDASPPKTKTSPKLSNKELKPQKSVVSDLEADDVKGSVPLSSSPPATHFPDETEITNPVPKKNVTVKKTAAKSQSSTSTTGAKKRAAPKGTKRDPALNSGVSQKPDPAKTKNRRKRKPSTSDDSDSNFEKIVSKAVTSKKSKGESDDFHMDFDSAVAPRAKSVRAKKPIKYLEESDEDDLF

In the case of `COc1ccc2c(c1OC)C(=O)O[C@@H]2[C@H]1c2c(cc3c(c2OC)OCO3)CCN1C` [Noscapine, noscapine, reference compound], the EC50 [1] is reported as ~10 µM, the “inhibition of topoisomerase I activity” value [2] is reported as “neither etoposide nor noscapine inhibited” and the “inhibition of topoisomerase II activity” value [3] is reported as “neither topotecan nor noscapine acts as inhibitors”. The “Percent of Cells in G1” value [4] was 19.2%, the “Percent of Cells in G2/M” value [4] was 49.6% and the “Percent of Cells in S” value [4] was 31.1%.

Reference: US20050049278A1, “Benzo[1,3]dioxole compounds, pharmaceutical compositions thereof, and processes of making and using the same” (priority 2003, published 2005)
